Series [1] concerns Caco-2 cells. As to the kind of experiment: Morphological analysis by inverted microscopy. Format: cell-based, human. Particulars: 72 h, 20 or 40× magnification, versus untreated cells. The procedure:
After the near confluency of the culture, trypsinisation, and counting, Caco-2 cells were seeded (3 mL; 3 × 10^4 cells/mL) in 35 mm cell culture dishes with treatment for the tissue culture. Following 48 h of adherence, the cells were treated with the test solutions and incubated for 72 h in an environment protected from light. At every 24 h, cellular morphology was verified in an Olympus CKX41 SF inverted microscope with a 10, 20, or 40× objective, and the analysis was based on comparing the cells with and without treatment. Cell imaging was captured using a DC6V Olympus digital camera coupled to the microscope.

Series [2] deals with MCF-7 breast adenocarcinoma cell line. Nature of the series: MTT cell viability assay, MCF-7. Format: cell-based, human. Particulars: Homo sapiens. The procedure:
(§1) Caco-2, MCF-7, PC-3, and NHDF cell lines were obtained from the American Type Culture Collection (ATCC) and maintained in 75 cm^2 culture flasks in a humidified atmosphere at 37 °C with 5% carbon dioxide using a LEEC Culture Safe Precision CO2 Incubator. The culture media was renewed every two to three days. The NHDF cell line was cultured in Roswell Park Memorial Institute (RPMI) medium supplemented with 10% of inactivated fetal bovine serum (FBS), 2 mM of L-glutamine, 10 mM of 4-(2-hydroxyethyl)-1-piperazineethanesulfonic acid (HEPES), 1 mM of sodium pyruvate, and 1% of antibiotic/antimycotic mixture (Ab; 10,000 U/mL of penicillin G, […] of streptomycin, and 25 µg/mL of amphotericin B). The PC-3 cell line was also cultured in RPMI 1640 medium supplemented with 10% inactivated FBS and 1% of an antibiotic mixture (Sp; 10,000 U/mL of penicillin G and […] of streptomycin). The Caco-2 and MCF-7 cell lines were grown in Dulbecco’s Modified Eagle Medium (DMEM). Caco-2 was supplemented with 20% of inactivated FBS and 1% of Sp. On the other hand, the MCF-7 medium was complemented with 10% of inactivated FBS and 1% of Ab. All manipulations were performed in a Labculture Class II A2 Biological Safety Cabinet.
(§2) After the near confluency of cultures, cells were detached with a solution of 0.125 g/L trypsin and 0.02 g/L ethylenediaminetetracetic acid (EDTA), counted using the trypan blue method, resuspended, and seeded in 96-well culture plates (100 µL, 2 × 10^4 cells/mL). Following 48 h of adherence, cells were treated with the test solutions and incubated for 72 h. This incubation, as well as the solution manipulations, were performed in an environment protected from light. After the incubation, the medium was replaced with a fresh incomplete culture medium (without FBS and Ab or Sp) and MTT solution (5 mg/mL in phosphate buffer saline (PBS)). After additional incubation for 4 h, the MTT medium was removed, formazan crystals were dissolved in DMSO, and the optical density of each well was measured at 570 nm using a microplate spectrophotometer Bio-Rad xMark. Untreated cells were used as a negative control and 5-FU as the positive control. The results were expressed as the relative cell proliferation relative to the negative control cells. […] To determine the IC50 values, Caco-2, MCF-7, PC-3, and NHDF cells were exposed to increasing concentrations between 0.001 and 100 μM.

Series [3] in a line: Photostability evaluation in PBS (absorbance decay at 376 nm). Format: physicochemical. As to conditions: 10 µM in PBS. The procedure: The photostability of the dye 12 was evaluated using a concentration of 10 µM prepared from the dilution of 10 mM DMSO stock solution in PBS. In a 96-well plate, 100 µL of dye solution was added, irradiated in the same way as that previously described for photocytotoxicity evaluation for 120 min, and spectrophotometric readings were taken over this period at the dye 12’s maximum absorption wavelength (376 nm). Two independent experiments were performed in quadruplicate. The absorbance was normalised to simplify the analysis.

Series [4] concerns Caco-2 cells. As to the kind of experiment: Apoptosis by propidium iodide staining and flow cytometry. Format: cell-based, human. The method, then:
(§3) The apoptosis occurrence and influence of the dye 12 on the cell cycle were evaluated using propidium iodide (PI) staining and flow cytometry, as described by Riccardi and Nicolleti. After the near confluency of the culture, trypsinisation, and counting, Caco-2 cells were seeded (2 mL, 3 × 10^4 cells/mL) in 6-well plates. After 48 h of adherence, the cells were treated with the test solutions (3 mL and 5 mL for negative control) and incubated for 72 h. Untreated cells were used as the negative control, and sorbitol and 5-FU [56] were used as positive controls for the apoptosis and cell cycle distribution studies, respectively. After incubation, the supernatant was collected and the cells were washed with PBS and combined with the cells harvested using the trypsin treatment. This cell suspension was maintained on ice and centrifugated, and then the pellet was resuspended in 0.5 mL of PBS. The cells were fixed by adding 4.5 mL of 70% ethanol cooled at −20 °C and were stored at the same temperature. For the cytometry analysis, PBS was added to the fixed cells before centrifugation, and then the ethanolic supernatant was removed. The pellet was resuspended in 0.5 mL of PBS and 0.5 mL of DNA extraction (192 mL of 0.2 M sodium phosphate and 8 mL of […], pH 7.8) was added. After incubation for 5 min, the cells were centrifuged, the supernatant was removed, and the pellet resuspended in 0.3 mL of staining solution (20 µg/mL of PI and 0.2 mg/mL of DNase-free RNase in PBS). Using a FACSCalibur flow cytometer and the 488 nm laser line, a minimum of 20,000 events were recorded. Acquisition and apoptosis analysis was performed using BD CellQuestTM Pro 4.0.2 Software. Cell cycle analysis was performed with ModFit LT 5.0.9 software. To exclude debris and necrotic cells, events with a lower diameter (forward scatter; FCS) and reduced PI fluorescence (FL3) than the hypodiploid apoptotic cells were eliminated. Two independent experiments were performed.
In general terms: A flow cytometer gives signals particle by particle.

For series [5], the system named is Caco-2 colorectal adenocarcinoma cell line. As to the kind of experiment: MTT cell viability assay, Caco-2. Format: cell-based, human. As to conditions: Homo sapiens, Caco-2, 72 h. The procedure: as §1, §2
A general note: Tetrazolium dyes change colour on reduction, which living cells bring about.

A short description of series [6]: MTT cell viability assay, Caco-2. Format: cell-based, human. As to conditions: human, Caco-2, Caco-2 versus NHDF, 72 h; read-out: SI Caco-2 (selectivity index, cancer versus NHDF). The method, then: as §1, §2
Series [7] deals with Caco-2 cells. As to the kind of experiment: Cell cycle distribution by propidium iodide staining and flow cytometry. Format: cell-based, human. Particulars: dye 12 and 5-FU 10 µM 72 h, sorbitol 600 mM 24 h, versus untreated cells. The method, then:
as §3

By viability is commonly meant a per cent measure of how many cells are alive, often set against a control. A word on the IC50: it is the concentration that gives 50% inhibition. Read a high IC50 as a need for much substance.

`CN1C(=Cc2oc3ccccc3[n+]2C)Oc2ccccc21.Cc1ccc(S(=O)(=O)[O-])cc1` [Dye 12, 3-Methyl-2-((3-methylbenzo[d]oxazol-2(3H)-ylidene)methyl)benzo[d]oxazol-3-ium 4-methylbenzenesulfonate]: the “morphological changes of Caco-2 cells” value with Caco-2 cells [1] (1 µM) was “no visible differences”; in the series with Caco-2 cells [1] (10 µM), “evident contraction”. Moreover, the viability at 10 µM came to 10.8 ± 1.98% in series [2] (MCF7, 72 h, single concentration of 10 µM, 72 h, mean ± SD, read-out: cell viability percentage in relation with control, MCF-7) and 10 ± 0.93% in series [5] (single concentration of 10 µM, 72 h, mean ± SD, read-out: cell viability percentage in relation with control, Caco-2). Also, the IC50 in series [2] (MCF7, 72 h of incubation, MTT, protected from light) came out at 4570 nM; in series [5] (72 h of incubation, MTT, protected from light), 670 nM. In addition, the “decomposition (decrease in absorbance at 376 nm)” value in series [3] (after 30 min of irradiation) is recorded as “approximately 4%”; in series [3] (after 120 min of irradiation) it was about 5%. Moreover, in the series with Caco-2 cells [4] (Caco-2, 10 µM, 72 h), the “increase in apoptotic cells relative to untreated cells” value was found to be 2%. For the same compound, in the series on Caco-2 cells [4] (Caco-2, dye 12 10 µM 72 h, sorbitol 600 mM 24 h), the “apoptosis induced (percent of cells)” value was “about 3%”. In addition, the selectivity ratio at 72 h in series [6] amounted to 20.9. Moreover, in the series with Caco-2 cells [7], the “effect on cell cycle distribution” value was “notorious increase in the number of cells in the G0/G1 phase”.

Values taken from PMC9503608, “An Insight into Symmetrical Cyanine Dyes as Promising Selective Antiproliferative Agents in Caco-2 Colorectal Cancer Cells” (Molecules, 2022).
